Key:
[1] = tested on: rat after ligation of the coronary artery; test: LAD occlusion model of myocardial injury (ischemia/reperfusion); type: in vivo
Procedure: The efficacy of compound SEQ ID #45 in ameliorating the effects of myocardial ischemia was investigated in the rat after ligation of the coronary artery. […] unmanipulated rats, sorted into two large groups by initial body weight (>300 g pre-surgery) were evaluated. Fourteen rats underwent surgery on week, 12 rats underwent surgery on week 2 and rats were sorted into 3 treatment groups: Group 1, PBS; Group 2, positive control TDF-1; Group 3, test article SEQ ID #45 (see Table X).
Three days prior to surgery, a serum sample was collected from the tail vein of each rat (pre-bleed). On the day of surgery, each rat was administered compound intravenously 2 hr prior to surgery. Surgery was performed sequentially after intubation and ventilation with 0.5% isofluorane anesthetic. Lead II ECG was monitored throughout the surgery. A thoracotomy was performed and the main left coronary artery was occluded for 20 min using a snare technique (FIG. 16). Successful occlusion of the artery was confirmed by ST elevation in lead II ECG within the first 5 minutes of ligation, and by frequent ventricular arrhythmia after 10 minutes of ligation. The snare was released to restore blood flow. The original suture loop was left in place for subsequent re-occlusion on Day 7. After initiation of reperfusion, the chest cavity was closed with 2 layers of suture. Rats were weaned from the ventilator and observed until fully conscious and mobile. Antibiotic (QD) and analgesic (Q8D) were provided. Additional serum samples were collected 6, 24, 72 and 120 hours post occlusion. Additional compound, positive control or vehicle treatments were delivered by intravenous injection in the tail vein at 24, 72 and 120 hours post occlusion.
On Day 7, each rat was anesthetized (ketamine:xyline), the chest cavity re-opened and a terminal blood sample (1 ml) was withdrawn from the abdominal vein. Gross pathology (i.e. inflammation) was noted and graded on a 4 point inflammation scale: 0=no inflammation, 1=slight, 2=moderate, 3=severe and 4=complete pericarditis. The left coronary artery was then re-occluded using the existing stitch and a concentrated solution of Evans Blue dye in saline (20 mg/ml; 0.5 ml/rat) was injected into the heart apex to stain the non-ischemic cardiac tissue blue. The heart was then arrested by injection of a saturated solution of potassium chloride into the right ventricle. The heart was then excised, wrapped in cellophane and stored at −20° C. for 1.5 hour. The cold heart was cut into 10 cross-sectional slices (2 mm/slice) and each section was numbered and incubated separately in triphenyltetrazolium chloride (1% TTC in PBS) for 10 minutes at 37° C. prior to fixing in 4% formaldehyde. Subsequently, each slice was photographed. For each slice, the “area at risk (AR)” and the “area occupied by necrosis (AN)” were measured by morphometry. The ratio of AN to AR is a measure of the degree of damage resulting from the occlusion (FIG. 17A-FIG. 17B).

[2] = tested on: HK-2 (Human Kidney-2) cells; test: HK-2 cell culture, TNF-alpha induced cytokine production (IL-6 ELISA); type: cell-based
Procedure: The immortalized PTEC-derived HK-2 (Human Kidney-2) cells (ATCC number CRL-2190) were grown in serum-free keratinocyte medium (GIBCO number 17005-042) supplemented with epidermal growth factor (EGF: 5 ng/mL) and bovine pituitary extract (40 ug/mL) for 48 hours as described previously (Ryan et al (1994) Kidney International 45:48-57). Cells were transferred to 24-well plates at a density of 3×10^5 cells per well. After 24 hours, cells were incubated with fresh medium containing TNF-alpha (5 ng/mL) for 20 hours. Controls received medium alone. Then cells were washed twice with fresh culture medium and further incubated with culture medium alone (medium control, and TNF control wells) or TDF-1 at three different concentrations (40, 200 or 1000 ng/mL) or TDFRP compounds at three different concentrations (4, 20 or 100 uM) for sixty hours. During incubation, cells were kept in a 5% CO2 humid atmosphere at 37° C. At the end of the incubation, the media were removed and stored frozen until assayed. The concentrations of IL-6, IL-8 and sICAM-1 in culture supernatants were measured by specific ELISA (FIG. 10). […]
An 8 point standard curve is prepared using 2-fold serial dilutions in reagent diluent. […] The optical density of each well is determined immediately using a microplate reader (Dynex Revelation 4.22) set to 450 nm and a wavelength correction at 550 nm […]

CYFDDSSNVLCKKYRS [SEQ ID NO 45]
degree of cardiac inflammation ([1]; LAD occlusion model): reduces the degree of cardiac inflammation | necrotic area to area at risk ratio (IA/AR) ([1]; LAD occlusion model): reduces the necrotic area to area at risk ratio (IA/AR) | reduction in inflammation score as compared to PBS-treated animals ([1]; day 7, 10 mg/kg i.v., 4 point inflammation scale): 78% | reduction in AN/AR ratio as compared to PBS-treated animals ([1]; day 7, compound 10 mg/kg i.v., rhmBMP-7 160 μg/kg i.v.): 84% | inflammation and cytotoxic effects toward cardiomyocytes following myocardial infarction ([1]; myocardial ischemia and reperfusion injury): ameliorate inflammation and cytotoxic effects toward cardiomyocytes | TNF-alpha induced inflammatory response (increase in IL-6) in proximal tubule cells [2]: can alleviate this inflammatory response

Source: patent publication US8916686B2, “TDF-related compounds and analogs thereof” (Thrasos Innovation, Inc., priority 2004, dated 2014)
